Source: USRE47141E1, “Methods of treating fibrosis, cancer and vascular injuries” (EWHA University—Industry Collaboration Foundation, priority 2010, dated 2018)

What was measured:
4T1 cells = assay: Cell growth study (SRB assay), 4T1; assay type: cell-based; settings: 0.2% serum medium, four days
Method: Either 4T1 cells or MCF10A cells were seeded in 96-well plate at 5×10^3 cells per well. […] After incubation for four days, cell viability was determined by SRB assay.

[1] = system: bleomycin (BLM)-treated mice; assay: Anti-fibrotic effect on bleomycin-induced lung fibrosis model; assay type: in vivo
[2] = system: BALB/c 4T1 xenografted mice; assay: Anti-metastatic effect on BALB/c 4T1 xenografted mice model; assay type: in vivo
Method: Female BALB/c mice were purchased from Orient Bio Inc. (Seoul, Korea). Animals were maintained in a temperature-controlled room (22° C.) and supplied with food and water ad libitum. 4T1 cells (1.2×10^4 cells) were suspended in PBS and implanted into the left #4 mammary fat pad of five to six-week-old female BALB/c mice (day 0). In Experiment 1, treatment was started after tumor implantation (day 0). […] In Experiment 2, treatment was started on day 4. […] In Experiment 3, treatment was started on day 4. […] In Experiment 4, 4T1 cells (1×10^4 cells) were suspended in PBS and implanted into the left #4 mammary fat pad of ten-week-old female BALB/c mice (day 0). Treatment was started on day 10. Example 61 (43.6 mg/kg) dissolved in saline was given to mice intraperitoneally every other day for 2.5 weeks. In all Experiments, mice were sacrificed at 24 to 72 h after the last dosing, and 15% India ink solution (Hardy Diagnostics) in PBS was immediately injected into the trachea. […] Number of metastatic nodule was counted on the surface of left lobe of lung, and picture of lung was taken with digital camera. The tumor size was measured using calipers, and the tumor volume was calculated by using the following equation: Tumor volume=(0.5236)×(width)^2×(length)
Either vehicle buffer (4 mM HCl, 1 mg/mL BSA) or TGF-β1 (50 ng/mouse) in vehicle buffer was given to mice intravenously at 2 h before mice were sacrificed. Tumor tissues from mice were lysed in RIPA buffer [50 mM Tris, pH 7.5, 150 mM NaCl, 0.1% sodium dodecyl sulfate, 0.5% sodium deoxycholate, 1% NP-40, 1 mM NaF, 1 mM Na3VO4, 1 mM PMSF, a protease inhibitor cocktail (1 tablet of Roche Diagnostics GmbH protease inhibitor cocktail/10 mL) (Roche)] for 20 min on ice. Lysates were cleared by centrifugation at 13000 rpm at 4° C. for 20 min. Protein content of supernatants was determined using Micro-BCA (bicinchoninic acid) protein assay kit (Thermo Scientific). Lysates containing 20-50 μg total protein were separated by electrophoresis on polyacrylamide gel and then electrophoretically transferred to polyvinylidene difluoride transfer membranes (Millipore, Billerica, Mass., USA). Membranes were blocked with 5% BSA (Sigma-Aldrich) in PBS containing 0.5% Tween-20 (PBST) for 1 h and incubated overnight at 4° C. with one of following antibodies: anti-phospho-Smad2 (Millipore), anti-Smad2/3 (BD Transduction Laboratories, NJ, USA), or anti-β-actin (Sigma-Aldrich) in PBST containing 1% BSA. […] Bound antibodies were detected using Western Blotting Luminol Reagent (SantaCruz Biotechnology). Band intensities were analyzed using a densitometer LAS-3000 imager (FUJIFILM, Tokyo, Japan).

[3] = 5, 10, or 20 mg/kg orally five times per week for two weeks starting from day 7, Western blot

Q: How did the 4T1 cell growth (4T1 cells) turn out when `Cc1cccc(-c2[nH]c(CNc3ccccc3F)nc2-c2ccc3ncnn3c2)n1` [Example 2, N-((4-([1,2,4]triazolo[1,5-a]pyridin-6-yl)-5-(6-methylpyridin-2-yl)-1H-imidazol-2-yl)methyl)-2-fluoroaniline] was run?
A: no effect

Q: And the “fibronectin in BLM-induced fibrotic lung” value [1, 3]?
A: suppressed

Q: What about the “α-SMA in BLM-induced fibrotic lung” value [1, 3] of the same compound?
A: suppressed

Q: What about the BLM-induced histological changes ([1]; all dose levels tested (5, 10, 20 mg/kg orally), lung, H&E staining) of the same compound?
A: greatly reduced

Q: And the “number of metastastic nodules on the lung” value ([2]; Example 3 13.6 or 27.3 mg/kg orally BID, four weeks, Example 2 5, 10, 20, or 40 mg/kg orally, Example 61 43.6 mg/kg intraperitoneally every other day, 2.5 weeks)?
A: significantly reduced

Q: And the “TGF-β1-induced Smad2 phosphorylation in tumor tissues” value ([2]; Experiment 3, 5, 10, 20, or 40 mg/kg orally every other day for 24 days, Western blot)?
A: suppressed
